Reference: the supplement of paper PMC10733146

Legend:
Experiment in all cases: viability relative to DMSO control (fraction); higher = less drug effect (more viable cells)
Details in all cases: 48 h
[1] = compound: CC[C@@H]1C(=O)N(C)c2cnc(Nc3ccc(C(=O)N[C@H]4CC[C@H](N5CCN(CC6CC6)CC5)CC4)cc3OC)nc2N1C(C)C [BI6727]
How it was run: (§1)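 In 384-well plates with compounds pre-plated at five concentrations (one well per concentration), primary mononuclear tumour cells were plated at 4 × 10^4 cells per well. The cells came from blood or bone marrow by Ficoll isolation or from processed lymph node, and were used fresh or cryopreserved. Culture ran for 48 h at 37 °C and 5% CO2 in RPMI-1640 containing penicillin/streptomycin, L-glutamine and human serum. Viability was read as CellTiter-Glo luminescence, normalised to the median of 16 inner DMSO wells.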

[2] = compound: CCCS(=O)(=O)Nc1ccc(F)c(C(=O)c2c[nH]c3ncc(-c4ccc(Cl)cc4)cc23)c1F [Vemurafenib]
How it was run: as §1

[3] = compound: COc1c(Cl)cc2c([nH]c3cnccc32)c1NC(=O)c1cccnc1C [MLN-120B]
How it was run: as §1

[4] = compound: CC(C)C[C@H](NC(=O)[C@H](CCc1ccccc1)NC(=O)CN1CCOCC1)C(=O)N[C@@H](Cc1ccccc1)C(=O)N[C@@H](CC(C)C)C(=O)[C@@]1(C)CO1 [Carfilzomib]
How it was run: as §1

[5] = compound: CC(C)(C)c1cc(NC(=O)Nc2ccc(-c3cn4c(n3)sc3cc(OCCN5CCOCC5)ccc34)cc2)no1 [Quizartinib]
How it was run: as §1

[6] = compound: Nc1nc(Cl)nc2c1ncn2[C@H]1C[C@H](O)[C@@H](CO)O1 [Cladribine]
How it was run: as §1

[7] = compound: CC(C)N(C[C@H]1O[C@@H](n2cnc3c(N)ncnc32)[C@H](O)[C@@H]1O)[C@H]1C[C@@H](CCc2nc3cc(C(C)(C)C)ccc3[nH]2)C1 [EPZ-5676]
How it was run: as §1

[8] = compound: OCc1ccc(-c2ccc(-c3ccc(CO)s3)o2)s1
How it was run: as §1

[9] = compound: Cc1[nH]c2ccccc2c1CCNCc1ccc(/C=C/C(=O)NO)cc1 [Panobinostat]
How it was run: as §1

[10] = compound: CC#CC(=O)N1CC[C@@H](n2c(=O)n(-c3ccc(Oc4ccccc4)cc3)c3c(N)ncnc32)C1 [ONO-4059]
How it was run: as §1

[11] = compound: Cc1cc(Nc2cc(N3CCN(C)CC3)nc(Sc3ccc(NC(=O)C4CC4)cc3)n2)n[nH]1 [Tozasertib]
How it was run: as §1

[12] = compound: NC(=O)Nc1cc(-c2cccc(F)c2)sc1C(=O)N[C@H]1CCCNC1 [AZD7762]
How it was run: as §1

[13] = compound: CC(C)(C)OC(=O)Nc1ccc(-c2cc(C(=O)NCCCCCCC(=O)NO)no2)cc1
How it was run: as §1

[14] = compound: CC(=O)[C@]1(O)Cc2c(O)c3c(c(O)c2[C@@H](O[C@H]2C[C@H](N)[C@H](O)[C@H](C)O2)C1)C(=O)c1ccccc1C3=O [Idarubicin]
How it was run: as §1

[15] = compound: CCOc1cc(C(=O)N2CCC(N3CCN(C)CC3)CC2)ccc1Nc1ncc2c(n1)N(C1CCCC1)c1ccccc1C(=O)N2C [ERK5-IN-1]
How it was run: as §1

primary ALL patient cells (S088)
viability ([1]; 0.024 µM): 0.796 | viability ([1]; 0.12 µM): 0.833 | viability ([1]; 0.6 µM): 0.634 | viability ([1]; 3 µM): 0.358 | viability ([1]; 15 µM): 0.078 | viability ([2]; 0.024 µM): 0.986 | viability ([2]; 0.12 µM): 0.933 | viability ([2]; 0.6 µM): 1.08 | viability ([2]; 3 µM): 1.43 | viability ([2]; 15 µM): 1.78 | viability ([3]; 0.024 µM): 0.199 | viability ([3]; 0.12 µM): 0.231 | viability ([3]; 0.6 µM): 0.233 | viability ([3]; 3 µM): 0.248 | viability ([3]; 15 µM): 0.24 | viability ([4]; 0.00016 µM): 0.844 | viability ([4]; 0.0008 µM): 0.348 | viability ([4]; 0.004 µM): 0.0398 | viability ([4]; 0.02 µM): 0.0238 | viability ([4]; 0.1 µM): 0.0318 | viability ([5]; 0.016 µM): 0.809 | viability ([5]; 0.08 µM): 0.765 | viability ([5]; 0.4 µM): 0.775 | viability ([5]; 2 µM): 0.741 | viability ([5]; 10 µM): 0.676 | viability ([6]; 0.024 µM): 0.397 | viability ([6]; 0.12 µM): 0.178 | viability ([6]; 0.6 µM): 0.122 | viability ([6]; 3 µM): 0.0996 | viability ([6]; 15 µM): 0.0732 | viability ([7]; 0.0032 µM): 0.74 | viability ([7]; 0.016 µM): 0.922 | viability ([7]; 0.08 µM): 0.812 | viability ([7]; 0.4 µM): 0.874 | viability ([7]; 2 µM): 0.917 | viability ([8]; 0.024 µM): 0.359 | viability ([8]; 0.12 µM): 0.306 | viability ([8]; 0.6 µM): 0.205 | viability ([8]; 3 µM): 0.128 | viability ([8]; 15 µM): 0.0223 | viability ([9]; 0.00064 µM): 0.699 | viability ([9]; 0.0032 µM): 0.266 | viability ([9]; 0.016 µM): 0.115 | viability ([9]; 0.08 µM): 0.0993 | viability ([9]; 0.4 µM): 0.0891 | viability ([10]; 0.0016 µM): 1.03 | viability ([10]; 0.008 µM): 1.14 | viability ([10]; 0.04 µM): 1.07 | viability ([10]; 0.2 µM): 1.04 | viability ([10]; 1 µM): 1.02 | viability ([11]; 0.024 µM): 0.727 | viability ([11]; 0.12 µM): 0.653 | viability ([11]; 0.6 µM): 0.501 | viability ([11]; 3 µM): 0.382 | viability ([11]; 15 µM): 0.286 | viability ([12]; 0.024 µM): 0.488 | viability ([12]; 0.12 µM): 0.38 | viability ([12]; 0.6 µM): 0.256 | viability ([12]; 3 µM): 0.227 | viability ([12]; 15 µM): 0.189 | viability ([13]; 0.024 µM): 0.612 | viability ([13]; 0.12 µM): 0.528 | viability ([13]; 0.6 µM): 0.264 | viability ([13]; 3 µM): 0.127 | viability ([13]; 15 µM): 0.063 | viability ([14]; 0.024 µM): 0.341 | viability ([14]; 0.12 µM): 0.0818 | viability ([14]; 0.6 µM): 0.0274 | viability ([14]; 3 µM): 0.0177 | viability ([14]; 15 µM): 0.0163 | viability ([15]; 0.024 µM): 0.841 | viability ([15]; 0.12 µM): 0.851 | viability ([15]; 0.6 µM): 0.472 | viability ([15]; 3 µM): 0.39 | viability ([15]; 15 µM): 0.114

primary AML patient cells (S060)
viability ([1]; 0.024 µM): 0.976 | viability ([1]; 0.12 µM): 1.02 | viability ([1]; 0.6 µM): 0.904 | viability ([1]; 3 µM): 0.618 | viability ([1]; 15 µM): 0.0927 | viability ([2]; 0.024 µM): 1.01 | viability ([2]; 0.12 µM): 1.01 | viability ([2]; 0.6 µM): 1 | viability ([2]; 3 µM): 1.03 | viability ([2]; 15 µM): 1.03 | viability ([3]; 0.024 µM): 1.05 | viability ([3]; 0.12 µM): 1.05 | viability ([3]; 0.6 µM): 1.07 | viability ([3]; 3 µM): 1.03 | viability ([3]; 15 µM): 0.969 | viability ([4]; 0.00016 µM): 1.03 | viability ([4]; 0.0008 µM): 1 | viability ([4]; 0.004 µM): 0.672 | viability ([4]; 0.02 µM): 0.0981 | viability ([4]; 0.1 µM): 0.0286 | viability ([5]; 0.016 µM): 1.1 | viability ([5]; 0.08 µM): 1.14 | viability ([5]; 0.4 µM): 1.15 | viability ([5]; 2 µM): 1.09 | viability ([5]; 10 µM): 0.998 | viability ([6]; 0.024 µM): 1.02 | viability ([6]; 0.12 µM): 0.711 | viability ([6]; 0.6 µM): 0.249 | viability ([6]; 3 µM): 0.0776 | viability ([6]; 15 µM): 0.0416 | viability ([7]; 0.0032 µM): 0.943 | viability ([7]; 0.016 µM): 1.05 | viability ([7]; 0.08 µM): 0.885 | viability ([7]; 0.4 µM): 0.936 | viability ([7]; 2 µM): 1.04 | viability ([8]; 0.024 µM): 1.06 | viability ([8]; 0.12 µM): 0.956 | viability ([8]; 0.6 µM): 0.447 | viability ([8]; 3 µM): 0.368 | viability ([8]; 15 µM): 0.145 | viability ([9]; 0.00064 µM): 1.08 | viability ([9]; 0.0032 µM): 1.04 | viability ([9]; 0.016 µM): 0.379 | viability ([9]; 0.08 µM): 0.0487 | viability ([9]; 0.4 µM): 0.0408 | viability ([10]; 0.0016 µM): 1.03 | viability ([10]; 0.008 µM): 1.06 | viability ([10]; 0.04 µM): 1.03 | viability ([10]; 0.2 µM): 1.09 | viability ([10]; 1 µM): 1.1 | viability ([11]; 0.024 µM): 0.98 | viability ([11]; 0.12 µM): 0.92 | viability ([11]; 0.6 µM): 0.959 | viability ([11]; 3 µM): 1.02 | viability ([11]; 15 µM): 0.689 | viability ([12]; 0.024 µM): 0.95 | viability ([12]; 0.12 µM): 0.913 | viability ([12]; 0.6 µM): 0.174 | viability ([12]; 3 µM): 0.153 | viability ([12]; 15 µM): 0.084 | viability ([13]; 0.024 µM): 1.09 | viability ([13]; 0.12 µM): 1.05 | viability ([13]; 0.6 µM): 0.969 | viability ([13]; 3 µM): 0.206 | viability ([13]; 15 µM): 0.0414 | viability ([14]; 0.024 µM): 1.14 | viability ([14]; 0.12 µM): 1.04 | viability ([14]; 0.6 µM): 0.463 | viability ([14]; 3 µM): 0.0162 | viability ([14]; 15 µM): 0.0156 | viability ([15]; 0.024 µM): 1.01 | viability ([15]; 0.12 µM): 0.981 | viability ([15]; 0.6 µM): 0.987 | viability ([15]; 3 µM): 0.769 | viability ([15]; 15 µM): 0.239
